≈ marks a conversion by molar mass, not a printed value.
How the values were obtained:
MRSA = conditions: cited from earlier work
S. oralis ATCC 9811 = assay: MIC against S. oralis; assay type: cell-based; conditions: Streptococcus oralis, ATCC9811

For `FC(F)(F)c1ccc(Oc2ccc(-c3noc(-c4ccc5[nH]ccc5c4)n3)cc2)cc1` [Compound 1], the “efficacy in mouse models of MRSA infection” value (MRSA) is given as “efficacious”.

In the case of `CCc1c(Cl)c(O)c(Cl)c(O)c1C(=O)O[C@H]1[C@H](O)[C@H](OC)[C@H](OC/C2=C\C=C\C[C@H](O)/C(C)=C/[C@H](CC)[C@@H](O[C@@H]3OC(C)(C)[C@@H](OC(=O)C(C)C)[C@H](O)[C@@H]3O)/C(C)=C/C(C)=C/C[C@@H]([C@@H](C)O)OC2=O)O[C@@H]1C` [FDX, fidaxomicin], the MIC (S. oralis ATCC 9811) was 32 µg/mL (≈ 30.2 µM).
